# US20060069132A1, “Azolecarboxamide herbicides” (priority 2004, published 2006)
# What was measured:
# [1] = system: small flower umbrella sedge; experiment: Test B flooded paddy test; type: in vivo, Cyperus difformis; conditions: 1000 g ai/ha, visual rating, scale 0 to 100 (0 no effect, 100 complete control), 13 to 15 days
# Outline: (§1)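 Greenhouse test; postemergence application to plants at 1–4 leaves (2–18 cm); paddy species at 2 leaves; evaluated visually vs controls at 13–15 days; scale 0–100 (100 = complete control).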
# wild oat = experiment: Test B postemergence herbicide test; type: in vivo, Avena fatua; conditions: postemergence, visual rating, scale 0 (no effect) to 100 (complete control)
# Outline: (§2)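 Each value is a visual 0–100 response rating taken against controls 13 to 15 days after treatment in the greenhouse. Plants received formulated chemical postemergence at the 1- to 4-leaf stage or, in flooded paddy, at the 2-leaf stage.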
# large crabgrass = experiment: Test B pre-/postemergence herbicide test; type: in vivo, Digitaria sanguinalis; conditions: for Plant response rating, Crabgrass, Large: preemergence; for Crabgrass, Large plant response rating: postemergence, visual rating, scale 0 (no effect) to 100 (complete control)
# Outline: (§3)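 Test chemicals in a non-phytotoxic solvent mixture with surfactant were applied preemergence to seeded species and postemergence to plants 2-18 cm tall (1- to 4-leaf stage); rice and barnyardgrass were also tested in a flooded paddy at the 2-leaf stage. Visual rating versus controls after 13-15 days in greenhouse, scale 0 (no effect) to 100 (complete control).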
# cocklebur = experiment: Test B pre-/postemergence herbicide test; type: in vivo, Xanthium strumarium; conditions: for Plant response rating, Cocklebur: preemergence; for Cocklebur plant response rating: postemergence, visual rating, scale 0 (no effect) to 100 (complete control)
# Outline: (§4)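 Greenhouse pot assay with simultaneous preemergence (treated seed) and postemergence (2–18 cm seedlings) applications of surfactant-containing, non-phytotoxic solvent formulations. Response scored visually 13–15 days later on a 0–100 scale, 100 meaning complete control.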
# barnyardgrass [2] = experiment: Test B pre-/postemergence herbicide test; type: in vivo, Echinochloa crus-galli; conditions: for Plant response rating, Barnyardgrass: preemergence; for Barnyardgrass plant response rating: postemergence, visual rating, scale 0 (no effect) to 100 (complete control)
# Outline: as §4
# wheat = experiment: Test B postemergence herbicide test; type: in vivo, Triticum aestivum; parameters: key to Wheat plant response rating: 0 = no effect, 100 = complete control; conditions: postemergence, 500 g ai/ha; visual rating, scale 0 (no effect) to 100 (complete control)
# Outline: as §2
# ducksalad = experiment: Test B flooded paddy test; type: in vivo, Heteranthera limosa; conditions: 1000 g ai/ha, visual rating, scale 0 to 100 (0 no effect, 100 complete control), 13 to 15 days
# Outline: as §1
# corn = experiment: Test B pre-/postemergence herbicide test; type: in vivo, Zea mays; conditions: for Plant response rating, Corn: preemergence; for Corn plant response rating: postemergence, visual rating, scale 0 (no effect) to 100 (complete control)
# Outline: as §3
# Surinam grass = experiment: Test B pre-/postemergence herbicide test; type: in vivo, Urochloa decumbens; conditions: for Plant response rating, Surinam Grass: preemergence; for Surinam Grass plant response rating: postemergence, visual rating, scale 0 (no effect) to 100 (complete control)
# Outline: as §3
# giant foxtail = experiment: Test B pre-/postemergence herbicide test; type: in vivo, Setaria faberi; conditions: for Plant response rating, Foxtail, Giant: preemergence; for Foxtail, Giant plant response rating: postemergence, visual rating, scale 0 (no effect) to 100 (complete control)
# Outline: as §3
# barnyardgrass [3] = experiment: Test B flooded paddy test; type: in vivo, Echinochloa crus-galli; conditions: 1000 g ai/ha, visual rating, scale 0 to 100 (0 no effect, 100 complete control), 13 to 15 days
# Outline: as §1
# pigweed = experiment: Test B pre-/postemergence herbicide test; type: in vivo, Amaranthus retroflexus; conditions: for Plant response rating, Pigweed: preemergence; for Pigweed plant response rating: postemergence, visual rating, scale 0 (no effect) to 100 (complete control)
# Outline: as §3
# rice = experiment: Test B flooded paddy test; type: in vivo, Oryza sativa; conditions: 1000 g ai/ha, visual rating, scale 0 to 100 (0 no effect, 100 complete control), 13 to 15 days
# Outline: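 Paddy species grown to the 2-leaf stage under flooding; blackgrass sprayed postemergence at 2–18 cm (1- to 4-leaf stage). Plants kept in a greenhouse for 13 to 15 days, then visually rated against controls on 0 (no effect) to 100 (complete control).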
# blackgrass = experiment: Test B postemergence herbicide test; type: in vivo, Alopecurus myosuroides; conditions: postemergence, visual rating, scale 0 (no effect) to 100 (complete control)
# Outline: as §1
# velvetleaf = experiment: Test B pre-/postemergence herbicide test; type: in vivo, Abutilon theophrasti; conditions: for Plant response rating, Velvetleaf: preemergence; for Velvetleaf plant response rating: postemergence, visual rating, scale 0 (no effect) to 100 (complete control)
# Outline: as §3
# [4] = 500 g ai/ha, visual rating 0-100, 0 no effect, 100 complete control
# [5] = 125 g ai/ha, 0 to 100 scale, 0 is no effect, 100 is complete control
compound,measurement,setting,value
CCn1nc(C(C)(C)C)cc1C(=O)Nc1cccc(C#N)c1 [Compound 139],"Sedge, Umbrella plant response rating",[1],80
same,"Oat, Wild plant response rating",wild oat; 125 g ai/ha,10
same,"Oat, Wild plant response rating",wild oat; 500 g ai/ha,10
same,"Plant response rating, Crabgrass, Large",large crabgrass; [4],100
same,"Crabgrass, Large plant response rating",large crabgrass; 125 g ai/ha,10
same,"Crabgrass, Large plant response rating",large crabgrass; 500 g ai/ha,20
same,"Plant response rating, Crabgrass, Large",large crabgrass; [5],60
same,"Plant response rating, Cocklebur",cocklebur; [4],10
same,Cocklebur plant response rating,cocklebur; 125 g ai/ha,20
same,Cocklebur plant response rating,cocklebur; 500 g ai/ha,100
same,"Plant response rating, Cocklebur",cocklebur; [5],0
same,"Plant response rating, Barnyardgrass",barnyardgrass [2]; [4],90
same,Barnyardgrass plant response rating,barnyardgrass [2]; 125 g ai/ha,10
same,Barnyardgrass plant response rating,barnyardgrass [2]; 500 g ai/ha,10
same,"Plant response rating, Barnyardgrass",barnyardgrass [2]; [5],80
same,Wheat plant response rating,wheat,10
same,Ducksalad plant response rating,ducksalad,80
same,"Plant response rating, Corn",corn; [4],40
same,Corn plant response rating,corn; 125 g ai/ha,10
same,Corn plant response rating,corn; 500 g ai/ha,20
same,"Plant response rating, Corn",corn; [5],10
same,"Plant response rating, Surinam Grass",Surinam grass; [4],90
same,Surinam Grass plant response rating,Surinam grass; 125 g ai/ha,10
same,Surinam Grass plant response rating,Surinam grass; 500 g ai/ha,20
same,"Plant response rating, Surinam Grass",Surinam grass; [5],30
same,"Plant response rating, Foxtail, Giant",giant foxtail; [4],100
same,"Foxtail, Giant plant response rating",giant foxtail; 125 g ai/ha,10
same,"Foxtail, Giant plant response rating",giant foxtail; 500 g ai/ha,20
same,"Plant response rating, Foxtail, Giant",giant foxtail; [5],70
same,Barnyardgrass plant response rating,barnyardgrass [3],70
same,"Plant response rating, Pigweed",pigweed; [4],100
same,Pigweed plant response rating,pigweed; 125 g ai/ha,60
same,Pigweed plant response rating,pigweed; 500 g ai/ha,90
same,"Plant response rating, Pigweed",pigweed; [5],90
same,Rice plant response rating,rice,50
same,Blackgrass plant response rating,blackgrass; 125 g ai/ha,0
same,Blackgrass plant response rating,blackgrass; 500 g ai/ha,10
same,"Plant response rating, Velvetleaf",velvetleaf; [4],80
same,Velvetleaf plant response rating,velvetleaf; 125 g ai/ha,20
same,Velvetleaf plant response rating,velvetleaf; 500 g ai/ha,60
same,"Plant response rating, Velvetleaf",velvetleaf; [5],50
CCn1nc(C(C)(C)C)cc1C(=O)Nc1cc(C#N)ccc1F [Compound 140],"Sedge, Umbrella plant response rating",[1],80
same,"Oat, Wild plant response rating",wild oat; 125 g ai/ha,0
same,"Oat, Wild plant response rating",wild oat; 500 g ai/ha,0
same,"Plant response rating, Crabgrass, Large",large crabgrass; [4],100
same,"Crabgrass, Large plant response rating",large crabgrass; 125 g ai/ha,0
same,"Crabgrass, Large plant response rating",large crabgrass; 500 g ai/ha,0
same,"Plant response rating, Crabgrass, Large",large crabgrass; [5],0
same,"Plant response rating, Cocklebur",cocklebur; [4],80
same,Cocklebur plant response rating,cocklebur; 125 g ai/ha,0
same,Cocklebur plant response rating,cocklebur; 500 g ai/ha,20
same,"Plant response rating, Barnyardgrass",barnyardgrass [2]; [4],80
same,Barnyardgrass plant response rating,barnyardgrass [2]; 125 g ai/ha,0
same,Barnyardgrass plant response rating,barnyardgrass [2]; 500 g ai/ha,0
same,"Plant response rating, Barnyardgrass",barnyardgrass [2]; [5],20
same,Wheat plant response rating,wheat,0
same,Ducksalad plant response rating,ducksalad,80
same,"Plant response rating, Corn",corn; [4],0
same,Corn plant response rating,corn; 125 g ai/ha,0
same,Corn plant response rating,corn; 500 g ai/ha,10
same,"Plant response rating, Corn",corn; [5],0
same,"Plant response rating, Surinam Grass",Surinam grass; [4],60
same,Surinam Grass plant response rating,Surinam grass; 125 g ai/ha,0
same,Surinam Grass plant response rating,Surinam grass; 500 g ai/ha,0
same,"Plant response rating, Surinam Grass",Surinam grass; [5],0
same,"Plant response rating, Foxtail, Giant",giant foxtail; [4],80
same,"Foxtail, Giant plant response rating",giant foxtail; 125 g ai/ha,0
same,"Foxtail, Giant plant response rating",giant foxtail; 500 g ai/ha,0
same,"Plant response rating, Foxtail, Giant",giant foxtail; [5],0
same,Barnyardgrass plant response rating,barnyardgrass [3],70
same,"Plant response rating, Pigweed",pigweed; [4],80
same,Pigweed plant response rating,pigweed; 125 g ai/ha,0
same,Pigweed plant response rating,pigweed; 500 g ai/ha,0
same,"Plant response rating, Pigweed",pigweed; [5],0
same,Rice plant response rating,rice,30
same,Blackgrass plant response rating,blackgrass; 125 g ai/ha,0
same,Blackgrass plant response rating,blackgrass; 500 g ai/ha,0
same,"Plant response rating, Velvetleaf",velvetleaf; [4],20
same,Velvetleaf plant response rating,velvetleaf; 125 g ai/ha,0
same,Velvetleaf plant response rating,velvetleaf; 500 g ai/ha,0
same,"Plant response rating, Velvetleaf",velvetleaf; [5],0
